This is an account of results in PMC12433258, “Binding Differences of the Peptide‐Substrate–Binding Domain of Collagen Prolyl 4‐Hydroxylases I and II for Proline‐ and Hydroxyproline‐Rich Peptides” (Proteins, 2025).

Where two headings read alike, the source gives them in different places. No end group written: not given here. Some results are limits rather than exact numbers.

For assay [1], the target named is T1, PSB‐I^143–238 construct (peptide‐substrate–binding domain of C‐P4H‐I α‐subunit) (Homo sapiens, UniProt P13674).
T1 construct: made in house; host or cells: E. coli Rosetta(DE3)pLysS, pET22b(+)
Kind of assay: ITC binding of proline‐rich peptides to the PSB‐I^143–238 construct. To be noted: 25°C, 20 mM Bis‐Tris, 100 mM glycine; for ΔG / ΔH / −TΔS: pH 6.8, fixed n = 1, average ± SD of three measurements. From the text:
The PSB‐I^143–238 construct was cloned using standard molecular biology protocols, and a codon‐optimized P4ha1 cDNA for the full‐length C‐P4H‐I α‐subunit (GenScript Biotech Corporation, New Jersey, USA) was used as the template. This construct was amplified using a forward primer containing an NdeI site (underlined) (5′‐[…]‐3′) and a reverse primer containing an XhoI site (underlined) (5′‐[…]‐3′). The amplified product was digested with NdeI and XhoI and ligated into a pET22b(+) plasmid (Novagen, Wisconsin, USA) in‐frame with a C‐terminal His6‐tag, and its sequence (Ser143‐Glu238 (Figure 1A), with C‐terminal Leu‐Glu‐His6–tag) was verified by DNA sequencing in the Biocenter Oulu Sequencing Centre. PSB‐I^143–238 was expressed using Rosetta(DE3)pLysS cells in LB medium containing 100 μg/mL ampicillin and 34 μg/mL chloramphenicol. The cells were grown at 37°C using a shaker at 200 rpm until the OD600 reached 0.6–0.8, after which protein expression was induced using 1‐mM isopropyl β‐D‐1‐thiogalactopyranoside and incubated at 30°C for another 4 h. The cells were harvested and resuspended in 20 mL of 20‐mM Bis‐Tris, 100 mM glycine, pH 6.8 lysis buffer. After cell lysis by sonication, the supernatant was loaded onto a 20 mL Ni‐NTA chelating Sepharose column, pre‐equilibrated with the lysis buffer. Unbound proteins were washed away with 100 mL of the same buffer, and the bound proteins were eluted with a 100 mL linear imidazole gradient (0.0–0.5 M). The eluted fractions were analyzed by SDS‐PAGE to identify PSB‐I containing fractions, which were pooled, concentrated using the Amicon ultracentrifugal filter ([…] molecular weight cut‐off) and loaded on a Superdex75 16/600 preparative grade size‐exclusion chromatography (SEC) column (GE Healthcare, Chicago, USA), pre‐equilibrated with a 20 mM Bis‐Tris, 100 mM glycine, pH 6.8, SEC buffer. Fractions with PSB‐I^143–238 of high purity, based on SDS‐PAGE analysis, were pooled and concentrated to about 22 mg/mL (measured with a NanoDrop 1000, Thermo Scientific, Waltham, USA) and stored in the SEC buffer in 100 μL aliquots at −70°C. All characterizations, crystallization, and crystal testing experiments described below were performed in the Biocenter Oulu core facilities.
(§1) The peptides used in these studies were purchased from TAG Copenhagen A/S (Frederiksberg, Denmark). These peptides (9 residues) start with a free amino group and end with a free carboxylate group. The correct mass and the purity of the peptides (> 95% pure) were analyzed by the company using HPLC and mass spectrometry.
The protein samples of the PSB‐I^143–238 and PSB‐II constructs were prepared at a concentration of 50 μM in SEC buffer, being 20 mM Bis‐Tris, 100 mM glycine, pH 6.8 for PSB‐I^143–238 and 20 mM Tris, 50 mM NaCl, 50 mM glycine, pH 8.0 for PSB‐II (as described earlier). The peptides were dissolved in SEC buffer at a concentration of 3 mM by diluting a 100 mM stock solution in water with SEC buffer. The ITC measurements were carried out at 25°C, using the MicroCal iTC‐200 (Malvern Panalytical Ltd., Malvern, UK). The peptide solution was titrated into a sample cell of 200 μL volume from a syringe that was rotating at 750 rpm. First, 0.4 μL of the peptide solution was injected with a duration of 0.8 s; then, 12 consecutive injections were done, each with a volume of 3 μL, a duration of 6 s, and 180 s spacing time between each injection. For each peptide, at first only buffer in the sample cell (without protein) was titrated, and data were collected as control. Then the data for the PSB sample titrated with the peptide‐containing buffer were collected. The titration data were processed with Origin 7 (OriginLab, Massachusetts, USA) specifically designed for ITC data analysis. The control data that measured the residual heat effect from the peptide dilution were subtracted from the data of the peptide titration with PSB in the sample cell. […]

For assay [2], the target named is DD‐I construct (double domain construct of the α‐subunit of C‐P4H‐I). The following applies: calorimetric binding, reported previously; read-out: Affinity (K D) for the PSB‐I domain of the DD‐I construct; cited from earlier work. From the text: The affinity properties of the PSB‐I and PSB‐II constructs, as obtained from ITC peptide binding experiments, are shown in Table 2 and Figure S3.

Assay [3] addresses T2, PSB‐II^142–236 construct (peptide‐substrate–binding domain of C‐P4H‐II α‐subunit) (Homo sapiens, UniProt O15460).
T2 construct: Met-His6 (N); made in house
To be noted: ITC, data described previously, average ± SD of three measurements; cited from earlier work.

Assay [4] has as its target T2, PSB‐II^142–236 construct (peptide‐substrate–binding domain of C‐P4H‐II α‐subunit). Briefly: ITC binding of proline‐rich peptides to the PSB‐II construct. To be noted: 25°C, 50 μM protein, 3 mM peptide, 20 mM Tris, 50 mM NaCl, 50 mM glycine, pH 8.0, one‐set‐of‐sites, fixed n = 1, average ± SD of three measurements.
Excerpt: Additional experiments were done with a longer PSB‐I construct, PSB‐I^144–244 (residues Phe144‐Ser244 (Figure 1A), extended by a C‐terminal Leu‐Glu‐(His)6–tag) and with the PSB‐II^142–236 construct (residues Met142‐Glu236 (Figure 1A), preceded at the N‐terminus by a Met‐His6–tag). The expression and purification protocols for the PSB‐I^144–244 construct and the PSB‐II^142–236 construct have been described earlier.
as §1
The protein samples of the PSB‐I^143–238 and PSB‐II constructs were prepared at a concentration of 50 μM in SEC buffer, being 20 mM Bis‐Tris, 100 mM glycine, pH 6.8 for PSB‐I^143–238 and 20 mM Tris, 50 mM NaCl, 50 mM glycine, pH 8.0 for PSB‐II (as described earlier). […] The control data that measured the residual heat effect from the peptide dilution were subtracted from the data of the peptide titration with PSB in the sample cell. The integrated data were analyzed using the one‐set‐of‐sites fitting model with a fixed stoichiometry (n = 1). […]

The subject of a further assay is C‐P4H‐I. The following applies: cited from earlier work. An excerpt:
(§2) Prolines that occur in the PxGP motif cannot be hydroxylated by the C‐P4H catalytic domain, as they are in the X‐position of the XYG‐repeat and the x‐residue at the Y‐position cannot be a proline. […] Low affinity of the (Gly‐Pro‐4Hyp)5 peptide for the PSB co ...

The next assay concerns PSB‐I construct. To be noted: previous C‐P4H peptide binding studies; cited from earlier work.
Excerpt: as §2

In a further assay the test system is PSB‐II construct. To be noted: previous C‐P4H peptide binding studies; cited from earlier work.
Excerpt: as §2

The subject of the next assay is C‐P4H‐II. The following applies: cited from earlier work.
Excerpt: as §2

T1 sequence (P13674 160-255): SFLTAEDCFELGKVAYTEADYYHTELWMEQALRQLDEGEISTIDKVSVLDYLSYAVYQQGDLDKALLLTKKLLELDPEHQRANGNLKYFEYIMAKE
T2 sequence (O15460 163-257): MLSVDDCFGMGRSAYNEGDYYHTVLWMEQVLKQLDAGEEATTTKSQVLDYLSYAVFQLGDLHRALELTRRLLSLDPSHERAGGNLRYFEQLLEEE

Turning to PPGPPGPPG [(PPG)3, PPG‐PPG‐PPG peptide], in assay [1], the ΔG is -4.83 ± 0.06 kcal/mol, the ΔH was -13.6 ± 1.7 kcal/mol and the “−TΔS” value came out at 8.77 ± 1.66 kcal/mol. In addition, the Kd in assay [2] is 144 µM. The “K D” value in assay [3] is listed as “Not detectable”.
As for `C[C@H](NC(=O)[C@@H]1CCCN1C(=O)CNC(=O)[C@@H]1C[C@@H](O)CN1C(=O)[C@@H]1CCCN1)C(=O)NCC(=O)N1CCC[C@H]1C(=O)N1C[C@H](O)C[C@H]1C(=O)NCC(=O)O` [POG‐PAG‐POG], in assay [1] (50 μM protein in cell, 3 mM peptide in syringe, pH 6.8, one‐set‐of‐sites model, fixed n = 1, average ± SD of three measurements), the Kd worked out at 79.6 ± 9.6 µM. In assay [1], the ΔG is -5.60 ± 0.08 kcal/mol, the ΔH was -12.7 ± 0.2 kcal/mol and the “−TΔS” value worked out at 7.07 ± 0.25 kcal/mol. Besides, the Kd in assay [4] amounted to 26.2 ± 1.9 µM.
Take `C[C@H](NC(=O)[C@@H]1CCCN1C(=O)CNC(=O)[C@@H]1CCCN1C(=O)[C@@H]1CCCN1)C(=O)NCC(=O)N1CCC[C@H]1C(=O)N1CCC[C@H]1C(=O)NCC(=O)O` [PPG‐PAG‐PPG]: in assay [1], the ΔG is -5.51 ± 0.02 kcal/mol, the ΔH was -12.4 ± 0.5 kcal/mol and the “−TΔS” value is 6.86 ± 0.49 kcal/mol.
For “(Gly‐Pro‐4Hyp)5 [model peptide with a hydroxyproline at the Y‐position of each tripeptide repeat]”, the “Substrate of C‐P4H‐I” value in the assay on C‐P4H‐I is “not a substrate”. Moreover, the “Affinity for the PSB‐I construct relative to (PPG)5” value in the assay on PSB‐I construct is “much lower affinity than the (PPG)5 substrate peptide”. In addition, the “Affinity for the PSB‐II construct relative to (PPG)5” value with PSB‐II construct was “much lower affinity than the (PPG)5 substrate peptide”. Further, the “Substrate of C‐P4H‐II” value in the assay on C‐P4H‐II is listed as “not a substrate”.
Consider PPPPPPPPP [P9, (Pro)9 peptide], for which, in assay [1], the ΔG was -5.59 ± 0.10 kcal/mol, the ΔH was -9.5 ± 0.8 kcal/mol and the “−TΔS” value came out at 3.95 ± 0.82 kcal/mol. For the same compound, in assay [2], the Kd is 9.8 µM. Besides, in assay [3], the Kd was above 1500 µM.
For PPGPRGPPG [PPG‐PRG‐PPG], in assay [1], the ΔG is -6.06 ± 0.04 kcal/mol, the ΔH is -14.9 ± 0.4 kcal/mol and the “−TΔS” value was 8.87 ± 0.37 kcal/mol.
In the same order, the values of PPGPEGPPG [PPG‐PEG‐PPG] are -5.57 ± 0.02 kcal/mol, -13.2 ± 1.2 kcal/mol and 7.67 ± 1.17 kcal/mol.
